Experimental data reported in patent US6495698B1, “Binder-free compacted forms of 1,3-dihalo-5,5-dimethylhydantoins” (Albemarle Corporation, priority 2000, dated 2002).

Tests used:
Assay type in all cases: physicochemical
[1] = Tableting (pressure compaction) without binder in Sintech press; details: for compaction into tablets without binder (state of tablets released from the die): without any binder
Excerpt: The commerically available 1,3-dihalo-5,5-dimethylhydantoins referred to in Example 1 were subjected to tableting operations. Five-gram samples of 1,3-dibromo-5,5-dinethylhydantoin and four-gram samples of DCDMH and BCDMH were compacted without binder in a Sintech® press (MTS Systems Corporation, Edenprairie, Minn.) equipped with a punch and die fabricated from Hastelloy® C alloy. Before manually filling the die, the interior surfaces of the die were lightly dusted with micronized polypropylene wax (MICROPRO 400 wax; Micro Powders, Incorporated, Tarrytown, N.Y.). The pressure applied was 5000 psi with no dwell time, i.e., the pressure was terminated automatically immediately upon reaching 5000 psi. The resultant tablets after removal from the die were aged for 6 days at room temperature. Thereupon the tablets were subjected to crush strength testing utilizing a Sintech® 1/S compression apparatus (MTS Systems Corporation, Edenprairie, Minnesota) equipped with Testworks software, which software is installed in the 1/S compression apparatus as supplied by MTS Systems Corporation. The apparatus includes a horizontal circular-shaped load cell interfaced with a computer, a digital micrometer also interfaced with the computer, and a vertical screw-driven piston that is disposed above the load cell and adapted to apply a downward force perpendicular to the load cell. The procedure for measuring crush strength involves measuring the thickness of the tablet with the micrometer to provide a digitized input to the computer. Next the tablet is placed on its edge on the load cell with the piston in contact with the upper edge of the tablet. Then the apparatus is activated whereby the piston commences applying a progressively increasing downward diametral force to the tablet. At the same time, the load cell continuously measures the downward force being applied to the tablet, and the input of such measurements is transmitted to the computer. […]

[2] = Particle size determination with Coulter LS Particle Size Analyzer; details: for Particle Size 10% is greater than / Particle Size 25% is greater than / Particle Size 50% is greater than / Particle Size 75% is greater than / Particle Size 90% is greater than / Particle Size Average: commercially available sample
Protocol: All particle size determinations referred to in the following Examples were determined by use of a Coulter® LS Particle Size Analyzer. The analyzer was equipped with an LS 230 small volume module and a Fraunhofer PIDS (Polarization Intensity Differential Scattering) detector switched to the “On” position. The determinations were performed at room temperature with a run time of approximately 1 minute per sample. Prior to conducting the particle size determination, and whenever the sample appeared to contain particles adhering to each other, the sample was subjected for 15±1 seconds to sonication using a Sonicor Model SC-100T apparatus to ensure that the particle size measurements were on individual particles of the product, rather than temporarily agglomerated particles.
Samples of commercially-available N,N′-dihalo-5,5-dimethylhydantoins were obtained and subjected to standard test procedures inorderto determine their average particle size using the Coulter® LS Particle Size Analyzer. Table 1 summarizes the results of these average particle size determinations, and also sets forth the data obtained in the same way on arepresentative sample of the 1,3-dibromo-5,5-dimethylhydantoin product of application Ser. No. 09/484,687. Table 2 summarizes the particle size distribution data on the commercially-available 1,3-dihalo-5,5-dimethylhydantoins. In Table 2 the following abbreviations are used: DCDMH is 1,3-dichloro-5,5-dimethylhydantoin; BCDMH is N,N′-bromochloro-5,5-dimethylhydantoin; and DBDMH is 1,3-dibromo-5,5-dimethylhydantoin.

[3] = Crush strength testing of tablets (Sintech 1/S compression apparatus); details: binder-free tablets compacted at 5000 psi, aged 6 days at room temperature; average of three tests
Excerpt: The commerically available 1,3-dihalo-5,5-dimethylhydantoins referred to in Example 1 were subjected to tableting operations. Five-gram samples of 1,3-dibromo-5,5-dinethylhydantoin and four-gram samples of DCDMH and BCDMH were compacted without binder in a Sintech® press (MTS Systems Corporation, Edenprairie, Minn.) equipped with a punch and die fabricated from Hastelloy® C alloy. Before manually filling the die, the interior surfaces of the die were lightly dusted with micronized polypropylene wax (MICROPRO 400 wax; Micro Powders, Incorporated, Tarrytown, N.Y.). The pressure applied was 5000 psi with no dwell time, i.e., the pressure was terminated automatically immediately upon reaching 5000 psi. The resultant tablets after removal from the die were aged for 6 days at room temperature. Thereupon the tablets were subjected to crush strength testing utilizing a Sintech® 1/S compression apparatus (MTS Systems Corporation, Edenprairie, Minnesota) equipped with Testworks software, which software is installed in the 1/S compression apparatus as supplied by MTS Systems Corporation. […]
As used herein, including the claims, values given for crush strength are as measured using the apparatus and procedure as described in Example 2 above. […]

[4] = material compacted on small scale in manually filled dies

CC1(C)C(=O)N(Br)C(=O)N1Br [1,3-dibromo-5,5-dimethylhydantoin]
Compaction ([1]; without binder, 5000 psi, no dwell time, die dusted with micronized polypropylene wax, listed as 1,3-dibromo-5,5-dimethyhydantoin): could not be tableted | Average Particle Size ([2]; Source: Albemarle Corporation): 64.5 microns | Average Particle Size ([2]; Source: Aldrich Chemical Co.): 162.1 microns | Average Particle Size ([2]; Source: Great Lakes Chemical Corporation): 45.2 microns | Average Particle Size ([2]; Source: the product of Application No. 09/484,687): >500 microns

CC1(C)C(=O)N(Cl)C(=O)N1Br [BCDMH - Aldrich, N,N′-bromochloro-5,5-dimethylhydantoin]
compaction into tablets without binder (state of tablets released from the die) [1]: intact and exhibited no visual surface imperfections | Average Particle Size ([2]; Source: Aldrich Chemical Co.): 323.8 microns | Particle Size 10% is greater than [2]: 877.9 μ | Particle Size 25% is greater than [2]: 409.9 μ | Particle Size 50% is greater than [2]: 173.9 μ | Particle Size 75% is greater than [2]: 65.39 μ | Particle Size 90% is greater than [2]: 29.35 μ | Particle Size Average [2]: 323.8 μ | Average Particle Size [2, 4]: about 324 microns | Crush strength [3]: 83.9 lb/in

CC1(C)C(=O)N(Br)C(=O)N1Br [DBDMH - Albemarle, 1,3-dibromo-5,5-dimethylhydantoin]
Particle Size 10% is greater than [2]: 162.7 μ | Particle Size 25% is greater than [2]: 90.12 μ | Particle Size 50% is greater than [2]: 39.21 μ | Particle Size 75% is greater than [2]: 26.85 μ | Particle Size 90% is greater than [2]: 17.91 μ | Particle Size Average [2]: 64.59 μ

CC1(C)C(=O)N(Br)C(=O)N1Br [DBDMH - Aldrich, 1,3-dibromo-5,5-dimethylhydantoin]
Particle Size 10% is greater than [2]: 359.2 μ | Particle Size 25% is greater than [2]: 177.6 μ | Particle Size 50% is greater than [2]: 86.03 μ | Particle Size 75% is greater than [2]: 47.37 μ | Particle Size 90% is greater than [2]: 27.67 μ | Particle Size Average [2]: 162.1 μ

CC1(C)C(=O)N(Br)C(=O)N1Br [DBDMH - Great Lakes, 1,3-dibromo-5,5-dimethylhydantoin]
Particle Size 10% is greater than [2]: 78.76 μ | Particle Size 25% is greater than [2]: 49.76 μ | Particle Size 50% is greater than [2]: 34.68 μ | Particle Size 75% is greater than [2]: 23.25 μ | Particle Size 90% is greater than [2]: 13.90 μ | Particle Size Average [2]: 45.23 μ

CC1(C)C(=O)N(Cl)C(=O)N1Cl [DCDMH - Aldrich, 1,3-dichloro-5,5-dimethylhydantoin]
compaction into tablets without binder (state of tablets released from the die) [1]: intact and exhibited no visual surface imperfections | Average Particle Size ([2]; Source: Aldrich Chemical Co.): 108.1 microns | Particle Size 10% is greater than [2]: 195.3 μ | Particle Size 25% is greater than [2]: 134.4 μ | Particle Size 50% is greater than [2]: 80.07 μ | Particle Size 75% is greater than [2]: 45.99 μ | Particle Size 90% is greater than [2]: 27.19 μ | Particle Size Average [2]: 108.1 μ | Average Particle Size [2, 4]: about 108 microns | Crush strength [3]: 183.6 lb/in
